Experimental data taken from article PMC6982861, “Synthesis, Structural Characterization, and Biological Activity of New Pyrazolo[4,3-e][1,2,4]triazine Acyclonucleosides” (Molecules, 2020).
Where two headings read alike, the source gives them in different places.

How the values were obtained:
[1] = […] kinase assay, P-81 phosphocellulose; assay type: biochemical, Homo sapiens; details: read-out: MTT Assay ^a, IC50 (μM) / K-562
[2] = target: T1, (Homo sapiens, UniProt P00519); assay: […] kinase assay, P-81 phosphocellulose; assay type: biochemical
T1 construct: gene ABL1; Abl kinase
T1 sequence (P00519 whole entry): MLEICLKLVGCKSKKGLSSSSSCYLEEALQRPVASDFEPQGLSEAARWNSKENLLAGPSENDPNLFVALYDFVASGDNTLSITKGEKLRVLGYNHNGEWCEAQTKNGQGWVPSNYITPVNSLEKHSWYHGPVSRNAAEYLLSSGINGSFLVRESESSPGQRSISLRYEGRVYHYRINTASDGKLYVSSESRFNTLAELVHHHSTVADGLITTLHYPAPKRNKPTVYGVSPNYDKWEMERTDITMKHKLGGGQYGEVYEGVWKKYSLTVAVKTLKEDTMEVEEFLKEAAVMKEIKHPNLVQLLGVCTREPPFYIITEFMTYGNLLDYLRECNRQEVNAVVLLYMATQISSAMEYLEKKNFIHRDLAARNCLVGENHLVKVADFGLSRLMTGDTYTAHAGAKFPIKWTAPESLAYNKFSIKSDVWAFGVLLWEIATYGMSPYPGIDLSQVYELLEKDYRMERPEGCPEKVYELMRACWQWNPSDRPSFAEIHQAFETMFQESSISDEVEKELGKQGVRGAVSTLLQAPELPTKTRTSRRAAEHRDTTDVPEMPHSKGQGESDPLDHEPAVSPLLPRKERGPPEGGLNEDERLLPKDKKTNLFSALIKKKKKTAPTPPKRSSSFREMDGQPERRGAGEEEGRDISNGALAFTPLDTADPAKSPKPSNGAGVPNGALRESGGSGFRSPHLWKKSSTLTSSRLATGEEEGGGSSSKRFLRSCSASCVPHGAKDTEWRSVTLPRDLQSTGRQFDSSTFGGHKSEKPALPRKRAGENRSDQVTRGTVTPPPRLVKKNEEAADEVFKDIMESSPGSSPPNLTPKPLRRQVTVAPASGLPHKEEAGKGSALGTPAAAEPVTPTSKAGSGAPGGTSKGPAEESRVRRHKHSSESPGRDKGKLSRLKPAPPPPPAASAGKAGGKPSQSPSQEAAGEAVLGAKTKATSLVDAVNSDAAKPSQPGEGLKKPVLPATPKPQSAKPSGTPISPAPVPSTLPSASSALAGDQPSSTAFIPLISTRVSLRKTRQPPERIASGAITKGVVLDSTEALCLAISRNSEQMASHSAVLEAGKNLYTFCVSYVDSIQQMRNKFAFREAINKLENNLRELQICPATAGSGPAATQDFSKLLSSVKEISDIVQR

CDK2/Cyclin E = target: T2, CDK2/Cyclin E (Homo sapiens, UniProt P24941); assay: […] kinase assay, P-81 phosphocellulose; assay type: biochemical
T2 construct: kinase complex; with G1/S-specific cyclin-E1

[3] = read-out: MTT Assay ^a, IC50 (μM) / K-562

SMILES | IC50 [1] [µM] | IC50 [2, 3] [µM] | IC50 (CDK2/Cyclin E) [µM] | IC50 ([2]; read-out: IC50 (μM) ^a / CDK2/Cyclin E) [µM]
CSc1nnc2[nH]nc(C)c2n1 [compound 1, 3-methyl-5-methylsulfanyl-1H-pyrazolo[4,3-e][1,2,4]triazine] | > 100 | > 100 | – | –
CSc1nnc2c(n1)c(C)nn2CCO [compound 2, 1-(2-hydroxyethyl)-3-methyl–5-methylsulfanyl-1H-pyrazolo[4,3-e][1,2,4]triazine] | > 100 | > 100 | – | –
CSc1nnc2nn(CCO)c(C)c2n1 [compound 3, 2-(2-hydroxyethyl)-3-methyl-5-methylsulfanyl-2H-pyrazolo[4,3-e][1,2,4]triazine] | > 100 | > 100 | – | –
CSc1nnc2c(n1)c(C)nn2CC(O)CO (centres unmarked) [compound 4, 1-(2,3-dihydroxypropyl)-3-methyl–5-methylsulfanyl-1H-pyrazolo[4,3-e][1,2,4]triazine] | > 100 | > 100 | – | –
CSc1nnc2c(n1)c(C)nn2CCBr [compound 6, 1-(2-bromoethyl)-3-methyl-5-methylsulfanyl-1H-pyrazolo[4,3-e][1,2,4]triazine] | > 100 | > 100 | – | –
CCOC(=O)C(CCn1nc(C)c2nc(SC)nnc21)C(=O)OCC [compound 7, 1-(ethyl 2-carboethoxybutanoate-4-yl)-3-methyl-5-methylsulfanyl-1H-pyrazolo[4,3-e][1,2,4]triazine] | – | – | > 50 | > 50
CSc1nnc2c(n1)c(C)nn2CCC(CO)CO [compound 8, 1-[(4-hydroxy-3-hydroxymethyl)butyl]-3-methyl-5-methylsufanyl-1H-pyrazolo[4,3-e][1,2,4]triazine] | > 100 | > 100 | – | –
